How the values were obtained:
[1] = Inhibition of BTK in goat anti-human IgM F(ab')2-stimulated human B cells assessed as reduction in cell proliferation pretreated for 30 mins followed by goat anti-human IgM F(ab')2-stimulation and measured after 3 days by [3H]-thymidine incorporation assay
[2] = Inhibition of BTK in anti-CD3/CD28-stimulated human CD4-positive T cells assessed as reduction in cell proliferation pretreated for 30 mins followed by anti-CD3/CD28-stimulation and measured after 3 days by [3H]-thymidine incorporation assay

## N#CN1CCC[C@@H](n2nc(-c3ccc(Oc4ccc(F)cc4F)cc3)c(C(N)=O)c2N)C1
[1]
  IC50: 2.7 nM
[2]
  IC50: > 10 µM

## N#CN1CCC[C@@H](n2nc(-c3ccc(Oc4cccc(C(F)(F)F)n4)cc3)c(C(N)=O)c2N)C1
[1]
  IC50: 15 nM
[2]
  IC50: 10.1 µM

## N#CN1CCCC(n2nc(-c3ccc(Oc4ccc(Cl)cc4)cc3)c(C(N)=O)c2N)C1 (single isomer, unassigned)
[1]
  IC50: 1.7 nM
[2]
  IC50: 8.15 µM

## N#CN1CCC[C@@H](n2nc(-c3ccc(Oc4ncc(Cl)cc4F)cc3)c(C(N)=O)c2N)C1 [(R)-5-amino-3-(4-((5-chloro-3-fluoropyridin-2-yl)oxy)phenyl)-1-(1-cyanopiperidin-3-yl)-1H-pyrazole-4-carboxamide]
[1]
  IC50: 19 nM
[2]
  IC50: > 10 µM

## N#CN1CCC[C@@H](n2nc(-c3ccc(Oc4ccc(Cl)cn4)cc3)c(C(N)=O)c2N)C1
[1]
  IC50: 1.6 nM
[2]
  IC50: > 10 µM
